In US20070015771A1, “Lonidamine analogs” (Threshold pharmaceuticals, Inc., priority 2004, published 2007):

Assays:
LNCaP cells = test: Cell cycle analysis; assay type: cell-based, human; conditions: for % G0/G / % G2/M / % S: 24 h
Method: The effect of compound 1 (as described in Example 1 above) on the cell cycle was determined as follows. LNCaP cells (2×10^5 cells/ml/well) were seeded in a 24 well plate. The culture media were removed after 24 h, the cells were trypsinized and centrifuged. The cell pellets were resuspended in 100 μl PBS buffer, after which 300 μl of ice-cold ethanol (96%) added dropwise, and the cells were incubated at 4° C. for at least 24 hr. The cells were centrifuged and the supernatant was discarded. The cell cycle staining reagent (Guava Technologies, Hayward, Calif., USA, 200 μl) was added to each well. The cells were shielded from light and incubated at room temperature for 30 min. The samples were analyzed (Guava PCA-96 instrument, Cytosoft software, Guava Technologies, 25801 Industrial Boulevard, Hayward Calif. 94545-2991, USA) as tabulated below.

mouse prostate = test: Mouse study, 5 days oral, prostate weight and histomorphology; assay type: in vivo; conditions: C57B1/6J mice
Method: The effect of Compound 1 on the mouse prostate was determined as follows. Compound 1 was orally administered daily for 5 days to male, C57B1/6J mice, (n=5, 6-8 weeks old) 1 at 2, 5, and 20 mg/kg (as a 1% carboxymethylcellulose formulation). The control mice received an equal amount of the vehicle (carboxymethylcellulose). On day 6 the mice were sacrificed and the entire prostate and the individual lobes (e.g., the dorsal lobe and the ventral lobe) were weighed to measure absolute weights. Relative weights of prostate and individual lobes were calculated by dividing the absolute weight by the total weight of the mouse. Relative weights of the entire prostate, the dorsal prostate, and the ventral prostate were calculated by dividing the absolute weight by the total weight of the mouse. Both the absolute entire prostate and relative entire prostate weights reduced in the 5 and 20 mg/kg groups compared to the control group. The histomorphology of the prostate was also analyzed and compared to that of the control or untreated prostate as illustrated in FIGS. 1-3, showing […].

PWR-1E cells = test: BrdU-TUNEL apoptosis assay; assay type: cell-based; conditions: for % Non-apoptotic cells / % apoptotic cells: PWR-1E cells, 24 h
Method: The effect of compound 1 (as described in Example 1 above) on apoptosis was determined as follows. PWR-1E cells (2×10^5 cells/ml/well) were seeded in a 24 well plate. The culture media were removed after 24 h, the cells were rinsed with PBS buffer (200 μL) and incubated (5 min, 37° C.) with a solution of Guava Viacount CDR in PBS (1:3 v/v). Media (750 μL) containing at least 5% FBS was added to each well, the cells released by repeated pipeting, centrifuged, and the supernatant aspirated. The cells were resuspended in PBS buffer (150 μL) and fixed by incubating (60 min, 4° C.) with 4% paraformaldehyde in PBS. The cells were centrifuged, and the supernatant removed to a final volume of 15 μL. The cell pellets were resuspended, followed by dropwise addition of 200 μl of ice-cold ethanol (70%), and the cells incubated at −20° C. at least for 2 hr. The cells were centrifuged, the supernatant removed, washed, and incubated with the DNA labeling mix (37° C., 60 min). The cells were washed, incubated (30 min) with anti-BrdU staining mix, washed again and analyzed on a Guava PCA-96 system (Guava Technologies, 25801 Industrial Boulevard, Hayward Calif. 94545-2991, USA).

left and right testis = test: Mouse study, 10 days oral, testis weight; assay type: in vivo; conditions: C57B1/6J mice, oral daily for 10 days, 0.2-20 mg/kg
Method: The control mice received an equal amount of the vehicle (carboxymethylcellulose). […] Relative weights of entire prostate and individual lobes were calculated by dividing the corresponding absolute weight by the total weight of the mouse. Relative weights of the entire prostate, the dorsal prostate, and the ventral prostate were calculated by dividing the absolute weight by the total weight of the mouse. Relative weights of the left and right testis were calculated by dividing the corresponding absolute weights by the total weights of the mouse.

[1] = oral daily for 5 days, 5 and 20 mg/kg groups vs control

O=C(NO)c1nn(Cc2ccc(Cl)cc2Cl)c2ccccc12 [Compound 1]
effect on the cell cycle (LNCaP cells; 2.5-200 μM): does not have a measurable effect
% G0/G (LNCaP cells; 2.5 μM): 59%
% G2/M (LNCaP cells; 2.5 μM): 27%
% S (LNCaP cells; 2.5 μM): 11%
% G0/G (LNCaP cells; 7.4 μM): 56%
% G2/M (LNCaP cells; 7.4 μM): 26%
% S (LNCaP cells; 7.4 μM): 15%
% G0/G (LNCaP cells; 22.2 μM): 57%
% G2/M (LNCaP cells; 22.2 μM): 25%
% S (LNCaP cells; 22.2 μM): 11%
% G0/G (LNCaP cells; 66.7 μM): 51%
% G2/M (LNCaP cells; 66.7 μM): 24%
% S (LNCaP cells; 66.7 μM): 19%
% G0/G (LNCaP cells; 200 μM): 41%
% G2/M (LNCaP cells; 200 μM): 17%
% S (LNCaP cells; 200 μM): 18%
histomorphology of the prostate (mouse prostate; oral daily for 5 days, 2, 5, 20 mg/kg): dose-dependent disorganization of the epithelial cells
absolute entire prostate weight (mouse prostate; [1]): reduced
relative entire prostate weight (mouse prostate; [1]): reduced
apoptosis in PWR1E cells (PWR-1E cells; PWR1E cells): induces apoptosis
% Non-apoptotic cells (PWR-1E cells; 3.1 μM): 90%
% apoptotic cells (PWR-1E cells; 3.1 μM): 10%
% Non-apoptotic cells (PWR-1E cells; 6.2 μM): 88%
% apoptotic cells (PWR-1E cells; 6.2 μM): 12%
% Non-apoptotic cells (PWR-1E cells; 12.5 μM): 78%
% apoptotic cells (PWR-1E cells; 12.5 μM): 22%
% Non-apoptotic cells (PWR-1E cells; 25 μM): 48%
% apoptotic cells (PWR-1E cells; 25 μM): 52%
absolute left testis weight (FIG. 13) (left and right testis): dose dependent reduction
absolute right testis weight (FIG. 12) (left and right testis): dose dependent reduction
relative left testis weight (FIG. 5) (left and right testis): dose dependent reduction
relative right testis weight (FIG. 4) (left and right testis): dose dependent reduction
